{"source": "patent US20030143757A1", "about": "“Methods for identifying drug cores” (priority 1997, published 2003)", "target": "p38 MAP kinase (Homo sapiens, UniProt Q16539)", "sequence (Q16539 whole entry)": "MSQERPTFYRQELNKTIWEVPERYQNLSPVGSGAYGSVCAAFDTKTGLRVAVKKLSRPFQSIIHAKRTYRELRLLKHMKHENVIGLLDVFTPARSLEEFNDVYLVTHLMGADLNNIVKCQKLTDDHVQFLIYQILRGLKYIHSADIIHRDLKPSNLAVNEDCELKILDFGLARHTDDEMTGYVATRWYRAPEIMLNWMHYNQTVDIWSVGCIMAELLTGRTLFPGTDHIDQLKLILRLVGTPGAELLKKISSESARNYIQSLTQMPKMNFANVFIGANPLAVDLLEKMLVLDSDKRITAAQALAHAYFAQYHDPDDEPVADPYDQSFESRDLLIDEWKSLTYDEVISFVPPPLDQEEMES", "details": "1 mM each drug core, 0.2 mM p38 MAP kinase, 5° C., pD* 8.4, relaxation filter", "method": "All the spectra were acquired at 5° C. using a Bruker DMX 500 MHz NMR spectrometer. NOESY spectra were collected using 16 transients with 2048 points in ω2 and 400 points in ω1 and a mixing time of 400 ms for the drug core mixture in the absence of target and 100 ms for the drug core mixture in the presence of p38. A spin echo with an echo delay of 5 ms was used as a relaxation filter before the t1 evolution period in all experiments. Samples contained 1 mM of each drug core, 0.2 mM p38 MAP kinase, 25 mM deutero-Tris, 10% (v/v) deutero-glycerol, 20 mM deutero-dithiothreitol at pD*=8.4."}
{"molecule": "O=C(O)c1cccnc1", "note": "[nicotinic acid]", "values": [{"measurement": "binding to p38 MAP kinase by line broadening and peak height attenuation in 1D NMR", "value": "does not"}]}
